Measured values reported in article PMC10051798, “Thiosemicarbazide Derivatives Targeting Human TopoIIα and IDO-1 as Small-Molecule Drug Candidates for Breast Cancer Treatment” (International Journal of Molecular Sciences, 2023).
Converted amounts (≈) assume the structure as drawn. “And” between values parts separate entries of the source, which are not always exact repeats. Equal values may be shown once.

What was measured:
MCF-7 cells [1] = assay: Cell cycle analysis (PI flow cytometry), MCF-7; format: cell-based, human; settings: 24 h
Procedure: Cell cycle analyses of MCF-7 and MDA-MB-231 cells treated with compounds 1–3 and etoposide for 24 h were performed using a FACSCanto II flow cytometer (BD Bioscences Systems, San Diego, CA, USA). After incubation, breast cancer cells were trypsinized and fixed with cold ethanol (70%) and stored overnight at −20 °C. After removing ethanol, the cells were washed three times with PBS, treated with 50 μg/mL of DNase-free RNase A Solution (Promega, Madison, WI, USA) and stained with 100 μg/mL of PI. The results of measurements were analyzed using FCS Express 7 software (De Novo Software, Pasadena, CA, USA).

BCRP in MDA-MB-231 cells = target: T1, BCRP in MDA-MB-231 cells (Homo sapiens, UniProt Q9UNQ0); assay: MDR transporter activity assay, BCRP in MDA-MB-231; format: cell-based; settings: 24 h
T1 construct: endogenous in cells; host or cells: MCF-7 and MDA-MB-231 cells
T1 sequence (Q9UNQ0 1-655): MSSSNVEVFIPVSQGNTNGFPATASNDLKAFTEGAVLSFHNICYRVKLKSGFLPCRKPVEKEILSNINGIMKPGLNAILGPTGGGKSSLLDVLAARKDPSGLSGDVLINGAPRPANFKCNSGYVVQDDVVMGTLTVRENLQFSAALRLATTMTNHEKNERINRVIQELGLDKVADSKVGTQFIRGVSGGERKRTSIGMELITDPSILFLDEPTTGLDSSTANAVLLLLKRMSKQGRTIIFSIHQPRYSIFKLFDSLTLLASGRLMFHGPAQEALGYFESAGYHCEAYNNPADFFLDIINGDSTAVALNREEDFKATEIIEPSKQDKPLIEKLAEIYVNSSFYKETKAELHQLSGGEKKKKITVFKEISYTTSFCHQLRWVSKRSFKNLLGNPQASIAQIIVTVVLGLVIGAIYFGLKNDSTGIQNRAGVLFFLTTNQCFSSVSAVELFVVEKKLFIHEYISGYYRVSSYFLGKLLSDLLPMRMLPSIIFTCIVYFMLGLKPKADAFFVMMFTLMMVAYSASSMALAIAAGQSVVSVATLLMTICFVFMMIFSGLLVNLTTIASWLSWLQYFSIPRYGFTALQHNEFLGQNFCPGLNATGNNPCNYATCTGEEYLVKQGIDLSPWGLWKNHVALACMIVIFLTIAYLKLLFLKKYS
Procedure: An MDR Assay kit (Abcam, Cambridge, UK) was used following the manufacturer’s instructions. MCF-7 and MDA-MB-231 cells were incubated with compounds 1–3 (10 μg/mL and 20 μg/mL). After 24 h of incubation, the test cells were washed twice with 5 mL of PBS by centrifugation at 1200 rpm for 10 min. The supernatants were discarded and the cells were counted using a Scepter 3.0 handheld automated cell counter (Milipore, Burlington, MA, USA). Then, each of the tested samples was divided into three parts and analyzed. Tomeasure the activity of MDR1, MRP1 and BCRP (tubes 1–12), 5 μL of verapamil (MDR1 inhibitor) was added into tubes 1–3, 5 μL of MK-571 (MRP1 inhibitor) was added into tubes 4–6, 5 μL of noviobiocin (BCRP inhibitor) was added into tubes 7–9 and 125 μL DMEM with 1 μL of DMSO was added into tubes 10–12. Then, the samples were incubated at 37 °C for five minutes. After this time, 125 μL of Efflux Green Detection Reagent was added into tubes 1–12 and the samples were incubated for 30 min at 37 °C. After 25 min of incubation, 5 μL of PI was added to each tube. Thereafter, the samples were centrifuged for 10 min at 1200 rpm. The supernatants were discarded and the cells were resuspended in 500 μL of PBS and run on the flow cytometer immediately. Measurements were conducted on a BD FACSCanto II flow cytometer using FACSDiva software (version 6.1.3, BD Biosciences, San Diego, CA, USA). […] The calculations followed these formulas:MAFMDR1= 100 × (FMDR1 − F0)/FMDR1 MAFMRP= 100 × (FMRP − F0)/FMRP MAFBCRP= 100 × (FBCRP − F0)/FBCRP
• FMDR—MFI with MDR1 inhibitor (verapamil) • FMRP—MFI with MRP inhibitor (MK-571) • FBCRP—MFI with BCRP inhibitor (novobiocin) • F0—MFI without inhibitor
The theoretical range of the MAF values is between 0 and 100.

MCF-10A cells = assay: MTT viability assay, normal breast epithelial cells; format: cell-based, human; settings: for IC50: Homo sapiens, MCF-10A, MTT, 24 h; for SIMCF-7 (selectivity index): IC50 MCF-10A/IC50 MCF-7; for SIMDA-MB-231 (selectivity index): IC50 MCF-10A/IC50 MDA-MB-231
Procedure: Human breast cancer cells, i.e., MCF-7 (estrogen-dependent breast cancer cells) and MDA-MB-231 (estrogen-independent breast cancer cells), as well as normal human breast epithelial cells (MCF-10A) were purchased from the American Type Culture Collection (ATCC, Manassas, VA, USA). MCF-7 and MDA-MB-231 cells were cultured in DMEM (Sigma Aldrich, St. Louis, MO, USA) supplemented with 10% fetal bovine serum (FBS), penicillin (100 U/mL) and streptomycin (100 μg/mL). MCF-10A cells were cultured in Mammary Epithelial Cell Growth Medium supplemented with BPE, hEGF, insulin, hydrocortisone, GA-1000 (Lonza, Basel, Switzerland), 10% fetal bovine serum (FBS), penicillin (100 U/mL) and streptomycin (100 μg/mL). The cells were grown in T25 Cell Culture EasyFlask (Nunc, Roskilde, Denmark) at 37 °C in a humidified atmosphere of 5% CO2.
MTT assays were performed to evaluate the cytotoxic activity of the investigated compounds (1–3) against MCF-10A cells. Asuspension of cells (1 × 10^5 cells/mL) was distributed onto 96-well plates at a volume of 100 μL/well. After attachment, the cells were treated with increased concentrations of the tested compounds in medium containing 2% FBS, and incubated for 24 h. Then, 15 μL of MTT working solution (5 mg/mL in PBS) was added to each well and the plates were incubated for 3 h. Subsequently, 100 μL of 10% SDS solution was added to each well in order to dissolve the formazan formed. After overnight incubation at 37 °C, the absorbance of the obtained solution was measured at λ= 570 nm using a microplate reader (Epoch, BioTek Instruments, Inc., Winooski, VT, USA). At least two independent experiments were performed in triplicate. IC50 values of the tested compounds were calculated using the IC50 online calculator [27].

MDA-MB-231 cells = tested on: MDA-MB-231 cells; parameters: method as in PMID 36345785; settings: MTT; cited from earlier work
MCF-7 cells [2] = tested on: MCF-7 cells; parameters: method as in PMID 36345785; settings: MTT; cited from earlier work
MRP1/2 in MCF-7 cells = assay: MDR transporter activity assay, MRP in MCF-7; format: cell-based, human; settings: MCF-7, 10 µg/mL, 24 h
Procedure: An MDR Assay kit (Abcam, Cambridge, UK) was used following the manufacturer’s instructions. MCF-7 and MDA-MB-231 cells were incubated with compounds 1–3 (10 μg/mL and 20 μg/mL). After 24 h of incubation, the test cells were washed twice with 5 mL of PBS by centrifugation at 1200 rpm for 10 min. The supernatants were discarded and the cells were counted using a Scepter 3.0 handheld automated cell counter (Milipore, Burlington, MA, USA). Then, each of the tested samples was divided into three parts and analyzed. Tomeasure the activity of MDR1, MRP1 and BCRP (tubes 1–12), 5 μL of verapamil (MDR1 inhibitor) was added into tubes 1–3, 5 μL of MK-571 (MRP1 inhibitor) was added into tubes 4–6, 5 μL of noviobiocin (BCRP inhibitor) was added into tubes 7–9 and 125 μL DMEM with 1 μL of DMSO was added into tubes 10–12. Then, the samples were incubated at 37 °C for five minutes. After this time, 125 μL of Efflux Green Detection Reagent was added into tubes 1–12 and the samples were incubated for 30 min at 37 °C. After 25 min of incubation, 5 μL of PI was added to each tube. Thereafter, the samples were centrifuged for 10 min at 1200 rpm. The supernatants were discarded and the cells were resuspended in 500 μL of PBS and run on the flow cytometer immediately. Measurements were conducted on a BD FACSCanto II flow cytometer using FACSDiva software (version 6.1.3, BD Biosciences, San Diego, CA, USA). […]

Row | MAF BCRP (BCRP in MDA-MB-231 cells; MDA-MB-231, 20 µg/mL) | MAF BCRP (BCRP in MDA-MB-231 cells; MDA-MB-231, 10 µg/mL) | Structure (SMILES) | cells in G2/M phase (MCF-7 cells [1]; MCF-7, 10 µg/mL) | cells in S phase (MCF-7 cells [1]; MCF-7, 20 µg/mL) | IC50 (MCF-10A cells) | SIMCF-7 (selectivity index) (MCF-10A cells) | SIMDA-MB-231 (selectivity index) (MCF-10A cells) | IC50 (MDA-MB-231 cells) | IC50 MDA-MB-231 (MDA-MB-231 cells) | IC50 (MCF-7 cells [2]) | IC50 MCF-7 (MCF-7 cells [2]) | MAF MRP (MRP1/2 in MCF-7 cells) | cells in G2/M phase (MCF-7 cells [1]; MCF-7, 20 µg/mL)
1 | < 20 |  | O=C(NNC(=S)Nc1ccc(/N=N/c2ccccc2)cc1)c1ccccc1[N+](=O)[O-] [Compound 3] | 35.3% | 49.1% | 40.5 µg/mL and 96.2 µM | 5.30 | 3.86 | 24.9 ± 1.74 µM | 10.47 ± 0.73 µg/mL (≈ 24.9 µM) | 18.2 ± 1.36 µM | 7.67 ± 0.57 µg/mL (≈ 18.2 µM) | 5.3 | 
2 | 1.4 | 4.9 | O=C(Cc1cccc2ccccc12)NNC(=S)Nc1ccc(/N=N/c2ccccc2)cc1 [Compound 2] |  | 40.7% | 42.7 µg/mL and 97.2 µM | 4.65 | 5.60 | 17.4 ± 0.93 µM | 7.64 ± 0.41 µg/mL (≈ 17.4 µM) | 20.9 ± 0.59 µM | 9.18 ± 0.26 µg/mL (≈ 20.9 µM) | 9.9 | 32.2%
